# Assay results reported in the NIST ThermoML archive (doi:10.1016/j.jct.2007.11.009).
# ± gives the expanded uncertainty stated by the source.
# Assay: refractive index (Na D-line) (dimensionless)
# Details: 298.15 K; 101.33 kPa; Liquid; Standard Abbe refractometry
row,Structure (SMILES),refractive index
1,c1ccccc1 [benzene],1.4979 ± 0.0007
2,CCCCCCCC [octane],1.395 ± 0.0007
